Measurements: ChEMBL document CHEMBL4507259 (2021)

Assays:
[1] = GPCRScan assay: inhibition of GABA/PBR; set-up: species or system Rattus norvegicus; radioligand conc. used [nm] 0.3 – 2.0, parental cells brain tissue
[2] = target: Sodium-dependent serotonin transporter (Homo sapiens, UniProt P31645); experiment: 5-HT transporter (h) CEREP ligand profiling; settings: filed as antagonist, Compound concentration 10.0 uM
[3] = target: P2X receptor (Rattus norvegicus) (UniProt P51579+P49653+P51578+Q64663+P47824+P51577+P49654); experiment: P2X CEREP ligand profiling; type: protein assay; settings: filed as agonist; Compound concentration 10.0 uM
[4] = target: Adenosine receptor A2a (Homo sapiens) (UniProt P29274); experiment: A2A (h) CEREP ligand profiling; settings: filed as agonist, Compound concentration 10.0 uM
[5] = target: Sigma non-opioid intracellular receptor 1 (Homo sapiens) (UniProt Q99720); experiment: sigma (non-selective) (h) CEREP ligand profiling; settings: filed as agonist, Compound concentration 10.0 uM
[6] = target: Muscarinic acetylcholine receptor M3 (Homo sapiens) (UniProt P20309); experiment: M3 (h) CEREP ligand profiling; settings: filed as antagonist, Compound concentration 10.0 uM
[7] = target: Acetylcholinesterase (Homo sapiens) (UniProt P22303); experiment: acetylcholinesterase (h) CEREP ligand profiling; settings: Compound concentration 10.0 uM
[8] = system: Tyrosine-protein kinase ABL1 (Homo sapiens), P00519 [F317I]; settings: Compound concentration 1000.0 nM
[9] = system: Tyrosine-protein kinase ABL1 (Homo sapiens), P00519 [T315I]; settings: Compound concentration 1000.0 nM
[10] = target: Bone morphogenetic protein receptor type-1B (Homo sapiens) (UniProt O00238); settings: Compound concentration 1000.0 nM
[11] = target: Dual specificity tyrosine-phosphorylation-regulated kinase 2 (Homo sapiens) (UniProt Q92630); settings: Compound concentration 1000.0 nM
[12] = system: Epidermal growth factor receptor (Homo sapiens), P00533 [UNDEFINED MUTATION]; settings: Compound concentration 1000.0 nM
Sequence of Epidermal growth factor receptor (Homo sapiens), P00533 [UNDEFINED MUTATION] (P00533 whole entry, looked up, change not shown): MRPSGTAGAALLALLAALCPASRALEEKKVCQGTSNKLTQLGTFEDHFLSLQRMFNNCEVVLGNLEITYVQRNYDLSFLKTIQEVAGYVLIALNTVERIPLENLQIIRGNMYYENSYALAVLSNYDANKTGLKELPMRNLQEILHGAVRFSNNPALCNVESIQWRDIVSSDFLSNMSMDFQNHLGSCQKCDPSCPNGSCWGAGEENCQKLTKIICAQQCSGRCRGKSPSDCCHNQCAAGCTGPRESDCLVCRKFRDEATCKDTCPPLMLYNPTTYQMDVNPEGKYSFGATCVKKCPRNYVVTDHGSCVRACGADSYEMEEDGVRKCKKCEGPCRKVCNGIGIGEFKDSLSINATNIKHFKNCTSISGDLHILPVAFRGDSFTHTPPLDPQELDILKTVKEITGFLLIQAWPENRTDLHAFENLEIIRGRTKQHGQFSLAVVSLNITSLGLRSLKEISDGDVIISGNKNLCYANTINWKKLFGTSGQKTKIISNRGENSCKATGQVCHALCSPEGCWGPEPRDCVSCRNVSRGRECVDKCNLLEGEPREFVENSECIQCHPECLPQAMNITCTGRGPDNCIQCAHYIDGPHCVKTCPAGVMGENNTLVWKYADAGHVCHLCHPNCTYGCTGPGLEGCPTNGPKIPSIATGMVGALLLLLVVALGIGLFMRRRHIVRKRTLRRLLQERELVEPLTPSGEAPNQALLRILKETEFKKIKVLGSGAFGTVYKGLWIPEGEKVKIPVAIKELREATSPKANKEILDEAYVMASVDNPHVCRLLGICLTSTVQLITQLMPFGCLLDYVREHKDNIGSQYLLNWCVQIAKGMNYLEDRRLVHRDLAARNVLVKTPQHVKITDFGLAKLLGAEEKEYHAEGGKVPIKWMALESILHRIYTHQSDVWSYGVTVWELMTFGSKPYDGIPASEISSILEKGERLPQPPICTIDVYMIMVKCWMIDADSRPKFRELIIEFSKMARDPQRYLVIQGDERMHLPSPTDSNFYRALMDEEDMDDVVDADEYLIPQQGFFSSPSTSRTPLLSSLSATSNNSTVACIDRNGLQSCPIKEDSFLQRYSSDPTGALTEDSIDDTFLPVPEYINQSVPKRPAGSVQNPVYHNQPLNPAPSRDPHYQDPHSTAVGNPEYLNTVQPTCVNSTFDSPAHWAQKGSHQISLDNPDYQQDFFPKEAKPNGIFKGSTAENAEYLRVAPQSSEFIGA

[13] = system: Epidermal growth factor receptor (Homo sapiens), P00533 [UNDEFINED MUTATION]; settings: Compound concentration 1000.0 nM; remark: listed apart in the source
[14] = system: Epidermal growth factor receptor (Homo sapiens), P00533 [UNDEFINED MUTATION]; settings: Compound concentration 1000.0 nM; remark: listed apart in the source
[15] = target: Ephrin type-A receptor 2 (Homo sapiens) (UniProt P29317); settings: Compound concentration 1000.0 nM
[16] = target: Ephrin type-B receptor 4 (Homo sapiens) (UniProt P54760); settings: Compound concentration 1000.0 nM
Sequence of Ephrin type-B receptor 4 (Homo sapiens) (P54760 whole entry): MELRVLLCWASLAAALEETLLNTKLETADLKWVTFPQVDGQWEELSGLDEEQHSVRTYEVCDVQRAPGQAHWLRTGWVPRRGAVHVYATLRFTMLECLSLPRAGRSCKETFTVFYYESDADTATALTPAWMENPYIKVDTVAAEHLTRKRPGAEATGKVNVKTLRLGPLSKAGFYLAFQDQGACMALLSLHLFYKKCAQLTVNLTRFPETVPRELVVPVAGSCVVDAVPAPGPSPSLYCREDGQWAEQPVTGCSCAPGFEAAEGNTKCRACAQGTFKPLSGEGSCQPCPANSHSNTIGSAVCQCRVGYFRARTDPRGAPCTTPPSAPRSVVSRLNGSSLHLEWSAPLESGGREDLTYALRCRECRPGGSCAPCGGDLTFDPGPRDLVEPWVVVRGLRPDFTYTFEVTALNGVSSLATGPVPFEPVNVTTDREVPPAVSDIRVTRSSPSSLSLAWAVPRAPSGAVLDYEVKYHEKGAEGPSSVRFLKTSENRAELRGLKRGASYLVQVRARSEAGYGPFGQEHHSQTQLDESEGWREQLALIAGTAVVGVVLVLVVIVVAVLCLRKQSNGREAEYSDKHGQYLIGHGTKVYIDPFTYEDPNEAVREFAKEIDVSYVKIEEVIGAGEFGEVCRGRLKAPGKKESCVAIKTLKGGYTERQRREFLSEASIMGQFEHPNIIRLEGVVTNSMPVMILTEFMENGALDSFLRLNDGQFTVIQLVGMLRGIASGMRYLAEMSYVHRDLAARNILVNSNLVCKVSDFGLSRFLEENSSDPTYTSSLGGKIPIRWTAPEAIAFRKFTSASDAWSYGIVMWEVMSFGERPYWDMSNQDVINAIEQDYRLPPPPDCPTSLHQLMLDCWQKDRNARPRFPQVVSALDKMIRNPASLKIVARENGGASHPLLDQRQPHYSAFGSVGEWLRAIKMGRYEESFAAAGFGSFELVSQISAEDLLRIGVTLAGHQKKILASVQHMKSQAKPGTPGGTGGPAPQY

[17] = target: Mitogen-activated protein kinase 7 (Homo sapiens) (UniProt Q13164); settings: Compound concentration 1000.0 nM
[18] = target: Fibroblast growth factor receptor 3 (Homo sapiens) (UniProt P22607); settings: Compound concentration 1000.0 nM
[19] = target: Fibroblast growth factor receptor 4 (Homo sapiens) (UniProt P22455); settings: Compound concentration 1000.0 nM
Sequence of Fibroblast growth factor receptor 4 (Homo sapiens) (P22455 22-802 limits assumed): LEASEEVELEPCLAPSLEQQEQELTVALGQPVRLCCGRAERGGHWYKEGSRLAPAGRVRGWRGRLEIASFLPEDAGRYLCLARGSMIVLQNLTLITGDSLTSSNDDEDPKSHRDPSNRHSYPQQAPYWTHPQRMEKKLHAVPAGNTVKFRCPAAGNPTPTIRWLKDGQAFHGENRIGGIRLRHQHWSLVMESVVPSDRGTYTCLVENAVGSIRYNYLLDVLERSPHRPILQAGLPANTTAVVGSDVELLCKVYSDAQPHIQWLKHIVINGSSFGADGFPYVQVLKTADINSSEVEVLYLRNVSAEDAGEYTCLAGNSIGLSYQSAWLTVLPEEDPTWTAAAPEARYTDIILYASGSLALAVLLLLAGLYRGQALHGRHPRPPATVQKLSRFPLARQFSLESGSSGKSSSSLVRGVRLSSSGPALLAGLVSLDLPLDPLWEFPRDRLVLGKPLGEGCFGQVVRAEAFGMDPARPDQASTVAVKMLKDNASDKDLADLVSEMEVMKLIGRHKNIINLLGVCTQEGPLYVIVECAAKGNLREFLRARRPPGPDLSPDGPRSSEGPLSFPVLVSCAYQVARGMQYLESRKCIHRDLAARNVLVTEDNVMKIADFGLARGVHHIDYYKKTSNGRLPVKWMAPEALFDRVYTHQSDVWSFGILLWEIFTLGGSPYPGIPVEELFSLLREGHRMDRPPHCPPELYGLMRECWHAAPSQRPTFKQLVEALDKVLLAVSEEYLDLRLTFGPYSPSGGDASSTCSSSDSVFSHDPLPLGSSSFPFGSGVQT

[20] = system: Receptor-type tyrosine-protein kinase FLT3 (Homo sapiens), P36888 [D835H]; settings: Compound concentration 1000.0 nM
[21] = target: Interleukin-1 receptor-associated kinase 3 (Homo sapiens) (UniProt Q9Y616); settings: Compound concentration 1000.0 nM
Sequence of Interleukin-1 receptor-associated kinase 3 (Homo sapiens) (Q9Y616 whole entry): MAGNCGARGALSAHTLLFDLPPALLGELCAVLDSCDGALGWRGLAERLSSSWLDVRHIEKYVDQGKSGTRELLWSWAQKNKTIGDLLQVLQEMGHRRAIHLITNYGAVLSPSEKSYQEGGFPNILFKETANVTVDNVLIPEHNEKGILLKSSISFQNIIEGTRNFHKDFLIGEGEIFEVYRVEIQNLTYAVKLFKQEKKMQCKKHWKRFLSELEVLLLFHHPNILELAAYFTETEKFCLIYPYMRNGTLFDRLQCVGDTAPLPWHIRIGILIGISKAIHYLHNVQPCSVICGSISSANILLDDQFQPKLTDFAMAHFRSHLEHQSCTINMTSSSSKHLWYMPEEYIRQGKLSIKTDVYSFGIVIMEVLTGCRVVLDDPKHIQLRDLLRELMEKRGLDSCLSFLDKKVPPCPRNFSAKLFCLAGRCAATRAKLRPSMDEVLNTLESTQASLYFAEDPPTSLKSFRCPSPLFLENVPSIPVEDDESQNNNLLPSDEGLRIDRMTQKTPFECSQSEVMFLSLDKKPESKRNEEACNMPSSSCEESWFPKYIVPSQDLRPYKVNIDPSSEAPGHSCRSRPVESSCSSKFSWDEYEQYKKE

[22] = target: Interleukin-1 receptor-associated kinase 4 (Homo sapiens) (UniProt Q9NWZ3); settings: Compound concentration 1000.0 nM
[23] = target: Mitogen-activated protein kinase 9 (Homo sapiens) (UniProt P45984); settings: Compound concentration 1000.0 nM
[24] = target: Mast/stem cell growth factor receptor Kit (Homo sapiens) (UniProt P10721); settings: Compound concentration 1000.0 nM
[25] = target: LIM domain kinase 1 (Homo sapiens) (UniProt P53667); settings: Compound concentration 1000.0 nM
[26] = target: Serine/threonine-protein kinase STK11 (Homo sapiens) (UniProt Q15831); settings: Compound concentration 1000.0 nM
[27] = system: Leucine-rich repeat serine/threonine-protein kinase 2 (Homo sapiens), Q5S007 [G2019S]; settings: Compound concentration 1000.0 nM
[28] = target: Mitogen-activated protein kinase kinase kinase 2 (Homo sapiens) (UniProt Q9Y2U5); settings: Compound concentration 1000.0 nM
[29] = target: Serine/threonine-protein kinase 3 (Homo sapiens) (UniProt Q13188); settings: Compound concentration 1000.0 nM
[30] = target: Serine/threonine-protein kinase Nek10 (Homo sapiens) (UniProt Q6ZWH5); settings: Compound concentration 1000.0 nM
[31] = target: Serine/threonine-protein kinase PAK 6 (Homo sapiens) (UniProt Q9NQU5); settings: Compound concentration 1000.0 nM
[32] = target: Phosphatidylinositol 4,5-bisphosphate 3-kinase catalytic subunit delta isoform (Homo sapiens) (UniProt O00329); settings: Compound concentration 1000.0 nM
[33] = target: Phosphatidylinositol 5-phosphate 4-kinase type-2 beta (Homo sapiens) (UniProt P78356); settings: Compound concentration 1000.0 nM
[34] = target: Serine/threonine-protein kinase PLK1 (Homo sapiens) (UniProt P53350); settings: Compound concentration 1000.0 nM
[35] = target: Serine/threonine-protein kinase PLK4 (Homo sapiens) (UniProt O00444); settings: Compound concentration 1000.0 nM
[36] = target: Serine/threonine-protein kinase RIO3 (Homo sapiens) (UniProt O14730); settings: Compound concentration 1000.0 nM
Sequence of Serine/threonine-protein kinase RIO3 (Homo sapiens) (O14730 whole entry): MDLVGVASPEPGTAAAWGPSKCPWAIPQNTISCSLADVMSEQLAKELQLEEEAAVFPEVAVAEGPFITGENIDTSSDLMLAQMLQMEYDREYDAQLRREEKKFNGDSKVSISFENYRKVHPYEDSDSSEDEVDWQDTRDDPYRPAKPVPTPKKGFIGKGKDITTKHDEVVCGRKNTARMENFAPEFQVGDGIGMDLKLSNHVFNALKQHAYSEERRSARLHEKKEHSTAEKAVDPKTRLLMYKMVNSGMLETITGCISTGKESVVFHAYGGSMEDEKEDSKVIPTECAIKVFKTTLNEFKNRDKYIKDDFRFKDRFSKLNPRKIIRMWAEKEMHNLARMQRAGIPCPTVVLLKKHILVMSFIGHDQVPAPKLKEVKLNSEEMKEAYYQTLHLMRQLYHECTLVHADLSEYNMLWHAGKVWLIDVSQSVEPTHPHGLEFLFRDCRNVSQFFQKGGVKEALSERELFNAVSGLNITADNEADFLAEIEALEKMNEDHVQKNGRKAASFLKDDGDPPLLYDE

[37] = target: Dual serine/threonine and tyrosine protein kinase (Homo sapiens) (UniProt Q6XUX3); settings: Compound concentration 1000.0 nM
[38] = target: Ribosomal protein S6 kinase alpha-3 (Homo sapiens) (UniProt P51812); settings: Compound concentration 1000.0 nM
[39] = target: Serine/threonine-protein kinase Sgk2 (Homo sapiens) (UniProt Q9HBY8); settings: Compound concentration 1000.0 nM
Sequence of Serine/threonine-protein kinase Sgk2 (Homo sapiens) (Q9HBY8 whole entry): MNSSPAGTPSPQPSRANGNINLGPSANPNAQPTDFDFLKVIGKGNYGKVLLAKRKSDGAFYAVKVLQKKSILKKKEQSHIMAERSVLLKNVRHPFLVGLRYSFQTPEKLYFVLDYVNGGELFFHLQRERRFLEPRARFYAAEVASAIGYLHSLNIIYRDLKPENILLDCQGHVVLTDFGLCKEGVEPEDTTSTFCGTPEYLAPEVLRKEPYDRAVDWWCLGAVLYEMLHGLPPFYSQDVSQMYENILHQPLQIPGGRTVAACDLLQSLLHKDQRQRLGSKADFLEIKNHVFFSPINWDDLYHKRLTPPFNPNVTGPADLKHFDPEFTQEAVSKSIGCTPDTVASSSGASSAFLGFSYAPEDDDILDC

[40] = target: Serine/threonine-protein kinase 36 (Homo sapiens) (UniProt Q9NRP7); settings: Compound concentration 1000.0 nM
[41] = target: Serine/threonine-protein kinase TAO2 (Homo sapiens) (UniProt Q9UL54); settings: Compound concentration 1000.0 nM
[42] = target: Tyrosine-protein kinase Tec (Homo sapiens) (UniProt P42680); settings: Compound concentration 1000.0 nM
[43] = target: Serine/threonine-protein kinase VRK2 (Homo sapiens) (UniProt Q86Y07); settings: Compound concentration 1000.0 nM
Sequence of Serine/threonine-protein kinase VRK2 (Homo sapiens) (Q86Y07 whole entry): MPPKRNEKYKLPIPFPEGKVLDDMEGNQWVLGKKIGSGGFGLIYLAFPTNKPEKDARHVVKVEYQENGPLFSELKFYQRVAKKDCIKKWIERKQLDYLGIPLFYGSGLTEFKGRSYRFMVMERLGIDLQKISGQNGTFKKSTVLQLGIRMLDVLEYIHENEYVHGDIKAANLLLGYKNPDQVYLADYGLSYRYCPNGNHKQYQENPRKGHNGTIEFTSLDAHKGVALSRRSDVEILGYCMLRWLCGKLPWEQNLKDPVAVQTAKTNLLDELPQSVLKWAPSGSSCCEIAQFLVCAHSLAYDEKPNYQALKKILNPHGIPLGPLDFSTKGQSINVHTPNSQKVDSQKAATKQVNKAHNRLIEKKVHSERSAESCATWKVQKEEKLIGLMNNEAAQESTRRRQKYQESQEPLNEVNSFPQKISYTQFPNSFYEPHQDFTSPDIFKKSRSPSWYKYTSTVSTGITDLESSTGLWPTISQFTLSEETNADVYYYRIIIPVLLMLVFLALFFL

CNC(=O)Nc1ccc2c(c1)CC[C@@]21OC(=O)N(CC(=O)N(Cc2ccc(F)cc2)[C@@H](C)C(F)(F)F)C1=O [A-485]
Ki [1]: 1110 nM
pKi [1]: 5.96
inhibition [2]: 99%
inhibition [3]: 12%
inhibition [4]: 7%
inhibition [5]: -3%
inhibition [6]: -5%
inhibition [7]: -1%
residual activity [8]: 87%
residual activity [9]: 100%
residual activity [10]: 82%
residual activity [11]: 88%
residual activity [12]: 67%
residual activity [13]: 90%
residual activity [14]: 63%
residual activity [15]: 76%
residual activity [16]: 80%
residual activity [17]: 60%
residual activity [18]: 82%
residual activity [19]: 100%
residual activity [20]: 86%
residual activity [21]: 95%
residual activity [22]: 78%
residual activity [23]: 70%
residual activity [24]: 100%
residual activity [25]: 91%
residual activity [26]: 100%
residual activity [27]: 100%
residual activity [28]: 100%
residual activity [29]: 100%
residual activity [30]: 81%
residual activity [31]: 91%
residual activity [32]: 92%
residual activity [33]: 69%
residual activity [34]: 63%
residual activity [35]: 100%
residual activity [36]: 89%
residual activity [37]: 78%
residual activity [38]: 88%
residual activity [39]: 100%
residual activity [40]: 77%
residual activity [41]: 91%
residual activity [42]: 90%
residual activity [43]: 91%

CNC(=O)Nc1ccc2c(c1)[C@@]1(CC2)OC(=O)N(CC(=O)N(Cc2ccc(F)cc2)[C@@H](C)C(F)(F)F)C1=O [A-486]
Ki [1]: 2580 nM
pKi [1]: 5.6
inhibition [2]: 40%
inhibition [3]: -5%
inhibition [4]: -1%
inhibition [5]: 7%
inhibition [6]: 0%
inhibition [7]: 8%
residual activity [8]: 73%
residual activity [9]: 87%
residual activity [10]: 100%
residual activity [11]: 92%
residual activity [12]: 85%
residual activity [13]: 100%
residual activity [14]: 100%
residual activity [15]: 100%
residual activity [16]: 91%
residual activity [17]: 85%
residual activity [18]: 92%
residual activity [19]: 98%
residual activity [20]: 99%
residual activity [21]: 100%
residual activity [22]: 94%
residual activity [23]: 69%
residual activity [24]: 94%
residual activity [25]: 87%
residual activity [26]: 100%
residual activity [27]: 100%
residual activity [28]: 100%
residual activity [29]: 97%
residual activity [30]: 91%
residual activity [31]: 100%
residual activity [32]: 100%
residual activity [33]: 60%
residual activity [34]: 82%
residual activity [35]: 100%
residual activity [36]: 100%
residual activity [37]: 89%
residual activity [38]: 75%
residual activity [39]: 88%
residual activity [40]: 100%
residual activity [41]: 95%
residual activity [42]: 100%
residual activity [43]: 97%
